From US8618287B2, “Derivatives of triazines and uracils, their preparation and their application in human therapeutics” (Pierre Fabre Medicament, priority 2008, dated 2013)

How the values were obtained:
Human SCD-1 = target: T1, Human SCD-1 (Homo sapiens, UniProt O00767); assay: Human SCD-1 enzymatic activity from microsomes of HepG2 cells (conversion of stearic acid into oleic acid); assay type: biochemical; conditions: 10 μM compound; microsomal fraction of HepG2 cells; relative to carrier 0.1% DMSO; read-out: HSCD-1 (HEPG2) % inh. (10 μM)
T1 construct: adding 125 μg of microsomal fraction of HepG2 cells; host or cells: HepG2 human hepatocarcinoma cells (microsomal fraction)
T1 sequence (O00767 1-359): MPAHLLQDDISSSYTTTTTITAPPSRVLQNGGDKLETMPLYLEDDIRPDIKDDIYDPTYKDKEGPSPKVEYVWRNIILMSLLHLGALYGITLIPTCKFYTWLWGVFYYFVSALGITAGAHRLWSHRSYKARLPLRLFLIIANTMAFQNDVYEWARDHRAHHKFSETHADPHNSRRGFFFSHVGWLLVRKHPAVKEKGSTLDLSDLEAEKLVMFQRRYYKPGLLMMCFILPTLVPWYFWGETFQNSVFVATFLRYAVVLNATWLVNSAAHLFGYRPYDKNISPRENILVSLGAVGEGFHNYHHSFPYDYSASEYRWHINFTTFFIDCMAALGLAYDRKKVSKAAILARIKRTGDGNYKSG
Method: In vitro: Human SCD-1 enzymatic activity from microsomes of HepG2 cells after treatment with inhibitory compounds (inhibition %).
Human hepatocarcinoma HepG2 cells (ATCC, HB-8065) are grown to confluence and then trypsinized. The cell pellet is taken up in 10 mM Tris buffer (pH 7.4), saccharose (250 mM) DTT (1 mM) and then the cells are lyzed by sonication. The microsomes are obtained after centrifugation at 10,000 g for 20 minutes a 4° C. followed by centrifugation of the supernatant at 100,000 g for 60 minutes a 4° C. The pellet is taken up in 10 mM Tris buffer (pH 7.4) saccharose (250 mM) at 4° C. and the microsomal proteins are assayed and stored at −196° C. (liquid nitrogen).
The enzymatic reaction measures the conversion of stearic acid (a C18:0 fatty acid) into oleic acid (C18:1 fatty acid) by SCD-1. The enzymatic reaction is started by adding 125 μg of microsomal fraction of HepG2 cells to tubes (total reaction volume of 500 μl) containing 62 μM of stearic acid (45 μM of stearic acid and 17 μM of [^14C] stearic acid) in a phosphate buffer at 100 mM (pH 7.16) with 7.2 mM of ATP, 0.54 mM of CoA, 6 mM of MgCl2, 0.8 mM of NADH and the inhibitory compound or the carrier (0.1% DMSO). The tubes are incubated for 20 minutes at 37° C. and the enzymatic reaction is then stopped by adding KOH (12%) and saponification for 30 minutes at 80° C. After acidification (3N HCl), the fatty acids are extracted twice with ethyl ether, evaporated under nitrogen before being taken up with a methanol/dichloromethane (3:1) mixture. The product of the reaction (C18:1) is separated from the substrate of the reaction (C18:0) by HPLC (Perkin Elmer, C18 reverse phase column) coupled to a on-line radioactivity detector (FlowOne). Enzymatic activity is calculated in picomoles of stearic acid converted into oleic acid per minute and per mg of protein. For each inhibitory compound, an inhibition % is determined relatively to the reference enzymatic activity (carrier 0.1% DMSO). Sterculic acid is the reference inhibitory compound (Gomez F. E., Bauman D. E., Ntambi J. M., Fox B. G. Effects of sterculic acid on stearoyl-CoA desaturase in differentiating […] adipocytes. Biochem Biophys Res Commun. 300 316-326 (2003)).

| SMILES | inhibition at 10 µM (Human SCD-1) [%] | melting point [°C] |
| --- | --- | --- |
| CCCCCCCn1c(=O)[nH]nc(N2CCC(Oc3ccccc3Cl)CC2)c1=O [Example 76, 6-[4-(2-chloro-phenoxy)-piperidin-1-yl]-4-heptyl-2H-[1,2,4]triazine-3,5-dione] | 62 | 95 |
| Cn1nc(N2CCN(Cc3ccccc3C(F)(F)F)CC2)c(=O)n(C)c1=O [Example 55, 2,4-dimethyl-6-[4-(2-trifluoromethyl-benzyl)-piperazin-1-yl]-2H-[1,2,4]triazine-3,5-dione] | 65 | 92 |
| Cn1nc(N2CCN(C(=O)c3cc(F)ccc3C(F)(F)F)CC2)c(=O)n(C)c1=O [Example 42, 6-[4-(5-fluoro-2-trifluoromethyl-benzoyl)-piperazin-1-yl]-2,4-dimethyl-2H-[1,2,4]triazine-3,5-dione] | 80 | 87 |
| Cn1nc(N2CCC(Oc3ccc(F)cc3)CC2)c(=O)n(C)c1=O [Example 33, 6-[4-(4-fluoro-phenoxy)-piperidin-1-yl]-2,4-dimethyl-2H-[1,2,4]triazine-3,5-dione] | 48 | 70 |

Next, values leading:

| inhibition at 10 µM (Human SCD-1) [%] | melting point [°C] | SMILES |
| --- | --- | --- |
| 100 | 85 | Cn1c(=O)c(N2CCC(Oc3ccccc3C(F)(F)F)CC2)nn(-c2ccsc2)c1=O [Example 82, 4-methyl-2-thiophen-3-yl-6-[4-(2-trifluoromethyl-phenoxy)-piperidin-1-yl]-2H-[1,2,4]triazine-3,5-dione] |
| 54 | 106 | Cc1ccccc1-n1nc(N2CCC(Oc3ccccc3C(F)(F)F)CC2)c(=O)n(C)c1=O [Example 79, 4-methyl-2-o-tolyl-6-[4-(2-trifluoromethyl-phenoxy)-piperidin-1-yl]-2H-[1,2,4]triazine-3,5-dione] |
| 87 | 111 | Cn1c(=O)c(N2CCC(Oc3ccccc3C(F)(F)F)CC2)nn(-c2ccc(F)cc2)c1=O [Example 80, 2-(4-fluoro-phenyl)-4-methyl-6-[4-(2-trifluoromethyl-phenoxy)-piperidin-1-yl]-2H-[1,2,4]triazine-3,5-dione] |
| 90 | 65 | Cn1c(=O)c(N2CCC(Oc3ccccc3C(F)(F)F)CC2)nn(C2CCCCC2=O)c1=O (centres unmarked) [Example 86, 4-methyl-2-(2-oxo-cyclohexyl)-6-[4-(2-trifluoromethyl-phenoxy)-piperidin-1-yl]-2H-[1,2,4]triazine-3,5-dione] |
| 53 | 128 | COc1ccccc1-n1nc(N2CCC(Oc3ccccc3C(F)(F)F)CC2)c(=O)n(C)c1=O [Example 84, 2-(2-methoxy-phenyl)-4-methyl-6-[4-(2-trifluoromethyl-phenoxy)-piperidin-1-yl]-2H-[1,2,4]triazine-3,5-dione] |
| 100 | 112 | Cn1c(=O)c(N2CCC(Oc3ccccc3C(F)(F)F)CC2)nn(CCO)c1=O [Example 89, 2-(2-hydroxy-ethyl)-4-methyl-6-[4-(2-trifluoromethyl-phenoxy)-piperidin-1-yl]-2H-[1,2,4]triazine-3,5-dione] |
